{"source": "patent US20250352603A1", "about": "“VALERIAN COMPOSITION FOR SLEEP MANAGEMENT” (OMNIACTIVE HEALTH TECHNOLOGIES LIMITED, priority 2022, published 2025)", "format_in_all_cases": "in vivo, mice", "key": {"[1]": {"tested_on": "GABAAR2, GABAB R1, GABAB R2, 5-HT1A", "assay": "Western blot of brain GABAergic and serotonergic receptors", "conditions": "CM: caffeine then 2 mg/kg i.p.; vs C group", "procedure": "(§1) Working solutions of caffeine, melatonin, and valerian were prepared on a daily basis and administered intraperitoneally (i.p.). Based on the previous studies caffeine-induced insomnia is dose-dependent with 7.5 mg/kg i.p. caffeine maintaining wakefulness for at least 2 h. Electrical activity of the brain was monitored for 90 minutes following the caffeine injection and spike frequency/spike amplitude analysis was performed via the Labchart 7.3.3 program. Ninety (90) minutes after the caffeine injection, animals were deeply anesthetized with 4% isofluorane (30% O2, remainder N2O). Brains were rapidly removed, frozen on dry ice and stored at −80° C. for further analysis.\n(§2) Protein concentrations were determined using Western blot analysis. 50 μg of protein was electrophoresed on 4-15% Tris-Glycine polyacrylamide gels and transferred to Immobilon-P PVDF membranes, blocked for 1 h in 5% skim milk and incubated overnight at 4° C. with either GABAAR2, GABAB R1, GABAB-R2, 5H-T1A, GluA1, GluN1, GluN2 A, Bcl-2, Bax, and Caspase-3. Membranes were then incubated with horseradish peroxidase (HRP) conjugated IgG secondary antibody. Bands were quantified using Image software and normalized to actin as a loading control."}, "Bax, Bcl-2, Caspase-3": {"tested_on": "Bax, Bcl-2, Caspase-3", "assay": "Western blot of brain Bax, Bcl-2 and Caspase-3", "conditions": "CM: caffeine then 2 mg/kg i.p.; vs C group", "procedure": "as §1, §2"}, "[2]": {"tested_on": "brain tissue MDA, SOD, CAT, GPx", "assay": "Brain oxidative stress markers (MDA by HPLC; SOD, CAT, GPx by ELISA kits)", "conditions": "CM: caffeine then 2 mg/kg i.p.; vs C group", "procedure": "as §1\n(§3) Serum melatonin, serotonin, and dopamine was measured by ELISA kits. Brain levels of MDA was measured by HPLC. Brain activities of SOD, CAT and GPHx was measured using ELISA kits."}, "[3]": {"tested_on": "serum serotonin, dopamine, melatonin", "assay": "Serum melatonin, serotonin and dopamine by ELISA kits", "conditions": "CM: caffeine then 2 mg/kg i.p.", "procedure": "as §1, §3"}, "GluA1, GluN2A, GluN1": {"tested_on": "GluA1, GluN2A, GluN1", "assay": "Western blot of brain glutamate receptors", "conditions": "CM: caffeine then 2 mg/kg i.p.; vs C group", "procedure": "as §1, §2"}}}
{"smiles": "COc1ccc2[nH]cc(CCNC(C)=O)c2c1", "note": "[Melatonin]", "values": [{"measurement": "brain 5-HT1A levels", "setting": "[1]", "result": "significantly increased"}, {"measurement": "brain GABAB R1", "setting": "[1]", "result": "significant increase"}, {"measurement": "brain Bax", "setting": "Bax, Bcl-2, Caspase-3", "result": "significant increase"}, {"measurement": "brain Bcl-2", "setting": "Bax, Bcl-2, Caspase-3", "result": "significant decrease"}, {"measurement": "brain Caspase-3", "setting": "Bax, Bcl-2, Caspase-3", "result": "significant increase"}, {"measurement": "brain CAT", "setting": "[2]", "result": "significant increase"}, {"measurement": "brain GPx", "setting": "[2]", "result": "significant increase"}, {"measurement": "brain MDA levels", "setting": "[2]", "result": "significant reduction"}, {"measurement": "brain SOD", "setting": "[2]", "result": "significant increase"}, {"measurement": "serum dopamine levels", "setting": "[3]; vs C group", "result": "significant increase"}, {"measurement": "serum serotonin levels", "setting": "[3]; vs C group", "result": "significant increase"}, {"measurement": "melatonin levels in serum", "setting": "[3]; vs all the other groups", "result": "significantly higher"}, {"measurement": "brain GluA1 receptors", "setting": "GluA1, GluN2A, GluN1", "result": "significant increase"}, {"measurement": "brain GluN1 receptors", "setting": "GluA1, GluN2A, GluN1", "result": "significant increase"}, {"measurement": "brain GluN2A receptors", "setting": "GluA1, GluN2A, GluN1", "result": "significant increase"}]}
